Measured values taken from patent US20170233409A1, “TYPE IV SECRETION SYSTEM INHIBITORS” (priority 2016, published 2017).

System: type V secretion system-mediated release of the cytotoxin VacA
Format: cell-based, H. pylori

| SMILES | type V secretion system-mediated release of VacA into cell culture supernatants |
| --- | --- |
| O=C(O)[C@@H]1CSc2c(C3CC3)c(Cc3cccc4ccccc34)cc(=O)n21 [Compound C10, (3R)-8-cyclopropyl-7-(naphthalen-1-ylmethyl)-5-oxo-3,5-dihydro-2H-thiazolo[3,2-a]pyridine-3-carboxylic acid] | did not impair |
| COc1ccc(Cc2cc(=O)n3c(c2C2CC2)SC[C@H]3C(=O)O)c2ccccc12 [KSK85, (3R)-7-[(4-methoxynaphthalen-1-yl)methyl]-8-cyclopropyl-5-oxo-2,3-dihydro-5H-[1,3]thiazolo[3,2-a]pyridine-3-carboxylic acid] | did not impair |
